Experimental data: US11542475B2, “3D microphysiologic system” (Northwestern University, priority 2014, dated 2023)

Tests used:
IL8 = assay: ELISA of fallopian culture medium: IL8; type: cell-based, human; details: 10 nM E2, 7 days, conditioned medium, n=7
Description: Tissues were micro-dissected in alpha-MEM (Gibco, Carlsbad, Calif.) with 1% penicillin-streptomycin (Invitrogen, Carlsbad, Calif.). Individual fimbriae were separated into ˜50 mm^3 pieces. A portion of the tissue was fixed in 2% paraformaldehyde for use as an uncultured control. For optimization studies, fimbriae were cultured without matrix, encapsulated in 0.5% alginate, or encapsulated in 0.5% alginate with 1 mg/ml collagen and 0.1% fibronectin, as previously described for murine cultures (King et al. J Vis Exp. 2011.; herein incorporated by reference in its entirety). For subsequent treatments, 0.5% alginate encapsulated fimbriae were randomly assigned to treatment groups, with at least five fimbriae per condition, per patient, in a 24-well plate containing alpha-MEM and 1% penicillin-streptomycin. […] Prior to fixation, fimbriae were labeled with 10 μM bromodeoxyurine (BrdU, Sigma-Aldrich) for 24 hours to denote proliferating cells. […]
IL8, VEGF-A, and FGF2 were detected in fallopian culture medium by enzyme-linked immunosorbent assay for human IL8 (EMD Millipore, Billerica, Mass., USA), VEGF-A (RayBiotech, GA, USA), or FGF2 (Abcam) respectively using the manufacturers' protocols. […] Results were normalized to total protein content as determined by western blotting and Ponceau staining to account for difference in tissue size between treatment groups. […]

[1] = system: IGF1 secretion by human fallopian epithelium; assay: hIGF1 immunoblot of fallopian epithelium conditioned medium; type: cell-based
Description: Human fallopian tissue was obtained from routine hysterectomies from women in their reproductive years (ages range from 26 to 50 years old) and who had not undergone exogenous hormonal treatment for at least three months prior to surgery. Informed consent was obtained from each patient and approval granted by the ethics committee of the Northwestern University. Human fallopian tissue was kept in the DMEM/F12 medium with 10% FBS on ice and processed within 24 hours. The tissue was washed with warm PBS solution two times before being transferred into warm dissection medium (Liebowitz 15 with 0.5% P/S and 10% FBS). After cleaning connective tissue from outside of the fallopian tissue, the fallopian tube was cut open and the inner epithelia layer was mechanically dissected using forceps. […] Tissue was cultured on 0.4 μm pore Millicell inserts (PICM03050, EMD Millipore Co, Billerica, Mass., USA) twelve-well plates with culture medium in a 37° C. and 5% CO2 incubator. Estrogen (E2) and progesterone (P4) used in tissue culture experiments were purchased from Sigma (St. Louis, Mo.).
Cultured human fallopian epithelia layers were homogenized with a minipestle in ice-cold lysis buffer (20 mM Tris-HCl, pH 8.0, 137 mM NaCl, 10% glycerol, 1% NP-40, 2 mM EDTA). Lysate normalized for protein content was loaded into NuPAGE 4-12% gradient Bis-Tris precast SDS-PAGE gels and transferred to a nitrocellulose membrane (Life Technologies, Carlsbad, Calif., USA). Blots were probed by polyclonal anti-OVGP1 antibody (LsBio, Cambridge, Mass.) overnight in 4° C. followed by anti-rabbit secondary antibody conjugated to horseradish peroxidase (Zymed, San Francisco, Calif.). Proteins were detected by ECL primer (GE HealthCare Life Sciences, Pittsburgh, Pa.) and exposed to X-ray film (Kodak, Rochester, N.Y.). The same blot was stripped using stripping buffer (Thermo Scientific, Hanover Park, Ill.) and re-probed with monoclonal anti-α-tubulin (Sigma, St. Louis, Mo.) followed by an anti-mouse secondary antibody conjugated to horseradish peroxidase. NIH ImageJ Imaging Software was used to quantify the density of western blot bands. Conditioned medium from fallopian epithelia cultures was collected and probed via western blot analysis using a polyclonal anti-hIGF1 antibody (abcam, Cambridge, Mass.). The blot was detected by the same method described above.
Fallopian epithelia layers cultured on […] inserts were pre-cultured in the alpha-MEM with 0.3% BSA, ITS and 1% P/S medium for two days. Cell culture medium was collected for the glucose ELISA assay (abcam, Cambridge, Mass.). Medium was diluted 1:500 and ELISA was performed according to the protocol provided by the kit. […]

[2] = system: human fallopian fimbriae FTE; assay: 3D human fimbriae culture: FTE proliferation by BrdU labeling; type: cell-based; details: insulin 5 μg/ml (ITS), H2O2 1 mM, E2 10 nM, n=6
Description: Tissues were micro-dissected in alpha-MEM (Gibco, Carlsbad, Calif.) with 1% penicillin-streptomycin (Invitrogen, Carlsbad, Calif.). Individual fimbriae were separated into ˜50 mm^3 pieces. A portion of the tissue was fixed in 2% paraformaldehyde for use as an uncultured control. For optimization studies, fimbriae were cultured without matrix, encapsulated in 0.5% alginate, or encapsulated in 0.5% alginate with 1 mg/ml collagen and 0.1% fibronectin, as previously described for murine cultures (King et al. J Vis Exp. 2011.; herein incorporated by reference in its entirety). For subsequent treatments, 0.5% alginate encapsulated fimbriae were randomly assigned to treatment groups, with at least five fimbriae per condition, per patient, in a 24-well plate containing alpha-MEM and 1% penicillin-streptomycin. […] Prior to fixation, fimbriae were labeled with 10 μM bromodeoxyurine (BrdU, Sigma-Aldrich) for 24 hours to denote proliferating cells. Fimbriae cultures were fixed (2% paraformaldehyde) followed by dehydration in ethanol and xylene, and embedment in paraffin.
Sections (5 μm) were cut and stained via hematoxylin and eosin for morphological analysis or immunohistochemistry was performed to localize proteins of interest as previously described (King et al. Endocr Relat Cancer. 2011. 18:627-42.; herein incorporated by reference in its entirety). Slides were rehydrated through an ethanol gradient, prior to 0.1M sodium citrate retrieval and peroxidase block. Tissues probed for BrdU were exposed to 4M HCl and 0.1M NaB4O7(Fisher Scientific) to denature DNA. All immunohistochemical reagents were obtained from Vector Laboratories, Inc (Burlingame, Calif.) unless otherwise stated. Tissues were blocked in 3% bovine serum albumin (Gemini, West Sacramento, Calif.)-TBS/10% serum and incubated with a primary antibody 1:50 acetylated tubulin (Cell Signaling, Cambridge, Mass.); 1:200 BrdU (AbCam, Cambridge, Mass.); 1:100 cytokeratin 8 (CK8, Developmental Studies Hybridoma Bank, Iowa City, Iowa); 1:50 p53 (Santa Cruz, Santa Cruz, Calif.); 1:100 PAX8 (Proteintech, Chicago, Ill.); 1:100 pH2AX (Cell Signaling); or 1:75 PR (Santa Cruz)) overnight at 4°. Tissues were washed in TBS-0.1% Tween and incubated with a secondary antibody (1:200), before being probed with ABC peroxidase standard, followed by detection with 3,3′-diaminobenzidine (DAB) and counterstained with hematoxylin.
Immunohistochemistry images were taken via a Nikon E600 microscope, DXM1200 digital camera and NIS Elements software (Nikon Instruments, Melville, N.Y.). For proliferation analysis, concurrent sections were stained for CK8 and BrdU. BrdU sections were imaged and epithelial cells (CK8 positive) were quantified for proliferation via ImageJ software (NIH, Bethesda, Md.). At least three fimbriae with 200 or more FTE were quantified for each treatment. […] Samples with p53 expression were quantified utilizing adjacent sections stained for the secretory cell marker PAX8 in a qualitative manner as described.

C[C@]12CC[C@@H]3c4ccc(O)cc4CC[C@H]3[C@@H]1CC[C@@H]2O [E2, estradiol]
IL8 increase compared to vehicle control (IL8): 22%±13% | IGF1 secretion ([1]; 7 days culture, 1 nM E2, P4 added to E2): induced | IGF1 secretion ([1]; 28 days stepwise E2 and P4 treatment, P4 in the presence of E2): stimulated | FTE proliferation (percentage of total FTE cells, BrdU) ([2]; 2 days in culture): 5.2±2.3% | FTE proliferation (percentage of total FTE cells, BrdU) ([2]; 7 days in culture): 2.4±0.5%
